This note sets out measurements from patent US10117943B2, “Synthetic antibody mimetic compounds (SYAMS) targeting cancer, especially prostate cancer” (YALE UNIVERSITY, priority 2013, dated 2018).

One assay deals with T1, PSMA on RM1.PGLS cells (Homo sapiens, UniProt Q04609).
T1 construct: host or cells: RM1.PGLS cells
The assay can be described thus: Binding to PSMA on RM1.PGLS cells (flow cytometry). Conditions: biotin-functionalized compound, fluorescent streptavidin. From the text: Accordingly, the inventors first synthesized the SyAM-P1 molecule, using Fmoc solid phase peptide synthesis to connect the two moieties (FIG. 2). As a consequence of that chemical synthesis the inventors tried to determine whether linking the two moieties would influence their ability to bind their respective protein targets, in a selective manner (FIG. 3A,B). The inventors thereafter evaluated the ability of the first-generation of SyAM-P molecules, identified as SyAM-P1, to bind PSMA on RM1.PGLS cells (FIG. 3A) or FcγRI on IIA1.6 cells (FIG. 3B). These experiments were conducted using SyAM-P1 molecules that were functionalized with biotin, and the bound SyAM-P1 was detected using a fluorescently labeled streptavidin, via flow-cytometry.
The binding of each SyAm derivative to PSMA was evaluated on PSMA-coated beads. 6 μm streptavidin labeled beads (Polysciences) were incubated with 400 μg/ml recombinant avi-tagged-PSMA protein for 30 minutes. Beads were washed twice with PBS, blocked with 1 mg/ml biotin for 30 minutes and then washed twice with TBS-A. 10^5 beads were incubated with a dilution series of SyAm ranging from 1 μM-100 pM. Streptavidin-Alexa467 (Invitrogen) was added to a final concentration of 3.3 μM. Samples were incubated on ice for 30 minutes, washed twice with DPBS, and evaluated by an Accuri C6 flow cytometer. […]

For assay [1], the system named is RM1.PGLS cells. The assay can be described thus: Superoxide burst (lucigenin) by primed U937 cells against RM1.PGLS cells. The assay is classed as cell-based. Conditions: IFN-γ primed U937 effectors. The source says: Since SyAM-P1 was able to induce effector-cell mediated responses against target protein coated beads, the inventors then evaluated if the molecule can elicit the effects against PSMA expressing cells. To that end, the inventors evaluated the SyAM-P1 induced immune responses by primed U937 effector cells against PSMA expressing RM1.PGLS cells. They tested the U937-mediated immune effects by evaluating both superoxide burst and phagocytosis of effector cells, analogous to the protein coated bead experiments. In this experiment, IFN-γ primed U937 cells were incubated with PSMA expressing RM1.PGLS cells, and treated with various concentrations of SyAM-P1. The resulting superoxide burst response was measured using the lucigenin assay (data not shown). Additionally, primed U937 cells (stained with DiD, an FL4 membrane dye) were incubated with target RM1.PGLS cells (stained with […], an FL1 membrane dye), in the presence of various concentrations of SyAM-P 1. The resulting phagocytosis—indicated by FL1 and FL4 double positive cells—was measured using two-color flow-cytometry. As a positive control, ARM-P8 combined with anti-DNP antibodies was utilized. […] The positive response seen with the Arm-P8 control, could potentially be attributed to the ability of antibodies to ligate both FcγRI and FcγRIIA on the immune effector cells, increasing immune signaling and phagocytic responses.

The subject of assay [2] is RM1.PGLS cells. The assay can be described thus: Phagocytosis of PSMA expressing RM1.PGLS cells by IFN-γ primed U937 cells. The class given is cell-based. Conditions: IFN-γ primed U937 effectors. As for the experimental part:
Target cell passing: Three days before the experiments, a plate of target cells, RM1.PGLS cells were passed into a new flask.
Effector cell priming: Three days before the experiments, a plate of U937 cells (approximately 60% confluent) was passed into a new Petri dish (10 mL colored ADCP media total volume). IFN-γ (20 μL, 100 μg/mL in DPBS) was added, and the cells were maintained in an incubator (37° C., 24 h). The cells were transferred into a Falcon tube, and DiD (19 uL, final concentration=1.9 μM) was added. The cells were maintained in an incubator (37° C., 30 min), pelleted, aspirated, resuspended in colored ADCP media (10 mL), and split equally into two Petri dishes. To each dish were added additional colored ADCP media (5 mL) and IFN-γ (20 μL, 100 μg/mL in DPBS), and the cells were maintained in an incubator (37° C., 24 h).
Target cell preparation: To a plate of target cells (60-80% confluent RM1.PGLS cells 10 mL total media volume) was added DiO (20 μL, final concentration=2 μM). The cells were maintained in an incubator (37° C., 30 min), aspirated, and washed with colored ADCP media (3×10 mL). Colored ADCP media (10 mL) was added. The cells were maintained in an incubator (37° C., 2 h), detached and resuspended in color-free ADCP media at a concentration of 0.5 million cells per mL.
Effector cell preparation: Both dishes of primed U937 cells were transferred into a Falcon tube, pelleted, aspirated, resuspended in color-free ADCP media (10 mL), counted, and diluted with color-free ADCP media to give a final concentration of 2 million cells per mL.
Phagocytosis: All conditions were run in triplicate. For each experiment, into a sterile 2 mL Eppendorf tube were added color-free ADCP media (25 μL) containing either various concentrations of SyAM-Px or ARM-P8/Anti-DNP antibody, target cells (25 μL=12,500 cells), and effector cells (50 μL=100,000 cells), to give an effector-to-target ratio of 8:1. Tubes were gently agitated by hand. The cells were pelleted (2 min, 1100 rpm). The tubes were opened, maintained in an incubator (37° C., 1 h), resuspended by briefly agitating with a vortex, and analyzed by flow cytometry.

Another assay concerns the target T2, FcγRI (Homo sapiens, UniProt P12314).
T2 construct: host or cells: IIA1.6 cells
Kind of assay: IIA1.6 FcγRI expressing cell binding assay. Particulars: biotin-functionalized compound, fluorescent streptavidin. As for the experimental part:
Peptide dilutions have been prepared in DMSO usually starting form 1 mM stock solution with further 10 fold dilution. Cells IIa1.6 stably transfected with FcγRIA/γ-chain and non-transfected IIa1.6 cells used as isogenic negative control, were grown to approximately 1.5-2×10^6 cells/mL density, spun down and reconstituted in RPMI 1640 medium without phenol red, supplemented with 10% FBS and Pen/Strep mixture to cell density 1×10^6 cells/mL. A 100 uL aliquot of cells was further transferred into an eppendorf tube and left to cool on ice for 5-10 minutes. Following this 1 uL of peptide dissolved in DMSO was added to the cells, bringing final concentration of DMSO to 1%. After 1 hour incubation on ice with a peptide 5 uL of Streptavidin-Alexafluor 488 (2 mg/mL) was added to the cells and left incubating on ice for 30-60 minutes. After the incubation cells were washed two times with 1 mL of cold RPMI1640 medium without phenol red, supplemented with 10% FBS and Pen/Strep and finally washed once in 1 mL TBS Buffer (150 mM NaCl and 25 mM Tris, pH 7.4). Cells were resuspended in residual TBS buffer (usually ˜100 uL) and analyzed via flow cytometry with detection in the FL1 channel.

The test system of a further assay is PSMA coated beads. The assay can be described thus: ROS production (superoxide burst, lucigenin) by primed U937 cells against PSMA coated beads. The class given is cell-based. Particulars: PSMA labeled beads, target dependent. As for the experimental part: Three days before the experiments, a plate of U937 cells (approximately 60% confluent) was passed into a new Petri dish (10 mL colored RPMI growth media total volume). IFN-γ (20 μL, 100 μg/mL in DPBS) was added, and the cells were maintained in an incubator (37° C., 24 h). The cells were pelleted after 24 hours and resuspended in 10 mL of IFN-γ (20 uL, 100 ug/mL in DPBS) and maintained in an incubator (37° C., 24 h)
For ROS production cells were resuspended in RPMI growth media (10 mL), and split equally into two Petri dishes. To each dish were added additional colored RPMI growth media (5 mL) and IFN-γ (20 μL, 100 μg/mL in DPBS), and maintained in an incubator (37° C., 24 h)
Primed U937 were suspended in color-free ADCP media at a concentration of 3×10^5 U937 cells and mixed with 10^5 PSMA coated beads and various concentrations of molecules in a 96 well plate in a volume of 90 uL. To each well was added 10 μl of 2.5 mM lucigenin (Tokyo Chemicals) solution to bring the total volume to 100 μl. The plate was centrifuged at 200 rcf for 2 minutes (PLATE SPINNER). The chemiluminescence was then measured at two minute intervals by plate reader (Biotek Synergy 2) for 60 to 90 minutes.

Assay [3] addresses T3, FcγRI on IIA1.6 cells and soluble recombinant human PSMA (Homo sapiens, UniProt P12314+Q04609).
T3 construct: soluble recombinant human PSMA; Avi-tag; expressed in transfected cells; host or cells: IIA1.6 cells (FcγRI); PSMA added as soluble recombinant protein
Kind of assay: Ternary complex formation between FcγRI expressing IIA1.6 cells and soluble PSMA. The assay is classed as binding. Particulars: probed with phycoerythrin anti-PSMA antibody. As for the experimental part: The inventors next evaluated SyAM-P1's ability to induce ternary complex formation, using soluble PSMA and FcγRI expressing cells (IIA1.6 cells) (FIG. 3c). The binding of PSMA to the cells was probed with a phycoerythrin anti-PSMA antibody, and was analyzed using flow cytometry.

T3 sequence (P12314 16-374): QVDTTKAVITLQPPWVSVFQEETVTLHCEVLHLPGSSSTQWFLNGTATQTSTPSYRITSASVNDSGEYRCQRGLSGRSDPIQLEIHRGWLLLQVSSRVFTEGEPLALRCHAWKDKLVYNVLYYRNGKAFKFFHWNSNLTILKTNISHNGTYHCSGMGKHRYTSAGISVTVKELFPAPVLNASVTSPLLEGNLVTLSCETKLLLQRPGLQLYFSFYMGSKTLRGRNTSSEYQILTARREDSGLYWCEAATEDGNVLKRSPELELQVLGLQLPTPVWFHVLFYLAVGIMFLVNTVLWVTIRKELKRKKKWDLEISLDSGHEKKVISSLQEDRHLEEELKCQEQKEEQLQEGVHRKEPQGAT
T3 sequence (Q04609 44-750 limits assumed): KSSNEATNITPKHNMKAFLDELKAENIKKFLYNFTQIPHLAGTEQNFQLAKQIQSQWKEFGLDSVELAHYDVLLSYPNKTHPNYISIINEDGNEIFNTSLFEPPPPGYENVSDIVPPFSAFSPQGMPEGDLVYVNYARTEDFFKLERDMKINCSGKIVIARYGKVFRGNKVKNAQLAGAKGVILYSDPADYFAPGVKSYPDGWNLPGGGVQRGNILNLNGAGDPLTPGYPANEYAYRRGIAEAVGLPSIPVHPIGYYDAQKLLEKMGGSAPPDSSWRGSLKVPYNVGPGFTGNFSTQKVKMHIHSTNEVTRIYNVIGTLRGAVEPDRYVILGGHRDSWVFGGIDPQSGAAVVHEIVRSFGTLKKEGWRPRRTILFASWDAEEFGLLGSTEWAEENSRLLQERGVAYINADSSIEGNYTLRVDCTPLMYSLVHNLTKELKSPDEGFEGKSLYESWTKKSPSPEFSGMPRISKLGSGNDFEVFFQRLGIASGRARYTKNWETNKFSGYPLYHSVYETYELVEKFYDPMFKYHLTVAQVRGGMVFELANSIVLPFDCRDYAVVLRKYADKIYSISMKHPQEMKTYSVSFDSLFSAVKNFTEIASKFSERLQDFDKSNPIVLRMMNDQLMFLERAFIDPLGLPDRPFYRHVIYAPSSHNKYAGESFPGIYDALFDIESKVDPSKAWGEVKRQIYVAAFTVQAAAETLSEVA
T3 sequence (P30273 19-86 partner): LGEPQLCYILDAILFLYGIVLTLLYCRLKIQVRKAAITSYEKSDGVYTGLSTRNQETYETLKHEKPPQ
T2 sequence (P12314 16-374): as the sequence (P12314 16-374) above
T2 sequence (P30273 19-86 partner): as the sequence (P30273 19-86 partner) above
T1 sequence (Q04609 whole entry): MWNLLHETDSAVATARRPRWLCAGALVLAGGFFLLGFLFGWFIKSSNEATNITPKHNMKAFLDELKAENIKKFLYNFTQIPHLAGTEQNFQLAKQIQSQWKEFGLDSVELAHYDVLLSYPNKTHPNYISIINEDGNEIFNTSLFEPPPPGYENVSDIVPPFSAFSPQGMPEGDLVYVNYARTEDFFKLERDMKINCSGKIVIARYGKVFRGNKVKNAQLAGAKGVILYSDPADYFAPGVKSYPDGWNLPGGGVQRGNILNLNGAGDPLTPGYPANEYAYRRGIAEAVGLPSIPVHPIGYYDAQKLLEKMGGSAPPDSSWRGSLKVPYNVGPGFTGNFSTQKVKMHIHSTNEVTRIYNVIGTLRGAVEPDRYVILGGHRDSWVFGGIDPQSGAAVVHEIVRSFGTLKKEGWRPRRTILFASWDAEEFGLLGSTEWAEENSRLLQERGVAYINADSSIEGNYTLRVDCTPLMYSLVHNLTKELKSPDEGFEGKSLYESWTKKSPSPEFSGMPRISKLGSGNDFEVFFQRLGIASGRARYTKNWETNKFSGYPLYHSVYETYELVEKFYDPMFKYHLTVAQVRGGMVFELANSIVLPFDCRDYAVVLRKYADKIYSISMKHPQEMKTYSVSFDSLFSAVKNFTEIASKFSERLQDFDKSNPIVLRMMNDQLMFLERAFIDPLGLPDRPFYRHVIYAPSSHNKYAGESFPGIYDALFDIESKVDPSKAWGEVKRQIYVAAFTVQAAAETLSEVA

On to `CC(=O)N[C@H](C(=O)N[C@@H](CC(N)=O)C(=O)N[C@@H](CO)C(=O)N[C@H]1CSSC[C@@H](C(=O)NCC(=O)N[C@@H](CC(=O)O)C(=O)N[C@@H](CC(=O)O)C(=O)N[C@@H](CCCCNC(=O)CCCC[C@@H]2SC[C@@H]3NC(=O)N[C@@H]32)C(=O)NCCCCCC(=O)NCCCCCC(=O)NCCCCCC(=O)NCCCCCC(=O)NCCCCCC(=O)N[C@@H](CCCCNC(=O)CCCCc2cn(CCCC[C@H](NC(=O)N[C@@H](CCC(=O)O)C(=O)O)C(=O)O)nn2)C(=O)NCC(N)=O)NC(=O)CNC(=O)[C@H](CC(C)C)NC(=O)[C@H](CC(C)C)NC(=O)[C@H](CC(N)=O)NC(=O)[C@@H]2CCCN2C(=O)[C@H](CC(C)C)NC(=O)[C@H](CC(C)C)NC(=O)[C@H](CC(C)C)NC1=O)C(C)C` [SyAM-P1], for which the “binding to PSMA on RM1.PGLS cells” value on PSMA on RM1.PGLS cells was “capability to bind to its respective targets”. The “superoxide burst against RM1.PGLS cells (in words)” value in the assay on RM1.PGLS cells [1] is “unable to induce any immune responses”. For the same molecule, the “phagocytosis of RM1.PGLS cells (in words)” value in the assay with RM1.PGLS cells [2] is “unable to induce any immune responses”. The “binding to FcγRI on IIA1.6 cells” value at FcγRI was “capability to bind to its respective targets”. For the same molecule, the “concentration at which superoxide burst is induced” value in the assay on PSMA coated beads stood at 100 nM. The ternary complex formation entry in assay [3] is “mediated through SyAM-P1”.
